Counter-ions that a name gives are not always drawn.

The target of one data set is T1, CRF receptors (Homo sapiens, UniProt P34998).
T1 sequence (P34998 24-415): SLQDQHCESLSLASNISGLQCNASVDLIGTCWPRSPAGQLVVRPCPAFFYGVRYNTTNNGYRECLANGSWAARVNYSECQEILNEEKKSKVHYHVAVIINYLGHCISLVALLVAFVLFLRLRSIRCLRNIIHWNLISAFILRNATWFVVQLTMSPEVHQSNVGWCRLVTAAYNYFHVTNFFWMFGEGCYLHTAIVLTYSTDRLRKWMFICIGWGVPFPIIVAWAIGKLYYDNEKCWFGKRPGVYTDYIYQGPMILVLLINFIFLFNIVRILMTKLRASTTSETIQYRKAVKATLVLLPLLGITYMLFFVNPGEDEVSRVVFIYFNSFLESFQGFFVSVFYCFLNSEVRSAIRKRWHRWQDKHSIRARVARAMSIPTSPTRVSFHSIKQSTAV
The data set can be described thus: CRF receptor binding assay (125I-CRF displacement). The settings on record: membrane preparation, 125I-CRF 100 pM, room temperature 2 hours. How it is done:
Assay for CRF Receptor Binding Activity
CRF receptor binding was performed using a modified version of the assay described by Grigoriadis and De Souza (Biochemical, Pharmacological, and Autoradiographic Methods to Study Corticotropin-Releasing Factor Receptors. Methods in Neurosciences, Vol. 5, 1991). Membrane pellets containing CRF receptors were resuspended in 50 mM Tris buffer pH 7.7 containing 10 mM MgCl2 and 2 mM EGTA and centrifuged for 10 minutes at 48000 g. Membranes were washed again and brought to a final concentration of 1500 μg/ml in binding buffer (Tris buffer above with 0.1% BSA, 0.15 mM bacitracin and 0.01 mg/ml aprotinin.). For the binding assay, 100 ul of the membrane preparation was added to 96 well microtube plates containing 100 μl of ^125I-CRF (SA 2200 Ci/mmol, final concentration of 100 pM) and 50 μl of drug. Binding was carried out at room temperature for 2 hours. Plates were then harvested on a Brandel 96 well cell harvester and filters were counted for gamma emissions on a Wallac 1205 Betaplate liquid scintillation counter. Non specific binding was defined by 1 μM cold CRF. IC50 values were calculated with the non-linear curve fitting program RS/1 (BBN Software Products Corp., Cambridge, Mass.).
The term IC50 denotes the concentration at which inhibition is half-maximal. A lower IC50 goes with greater potency. In the case of `CCCN(CC1CC1)c1ncnc2c(-c3c(C)cc(C)cc3C)cn(C)c12` [Compound 1, N-cyclopropylmethyl-N-propyl-5-methyl-7-(2,4,6-trimethylphenyl)-5H-pyrrolo[3,2-d]pyrimidin-4-amine], the IC50 is 110 nM. That is a sub-micromolar value. For the molecule `CCCCN(CC)c1ncnc2c(-c3c(C)cc(C)cc3C)cn(C)c12` [Compound 5, N-Butyl-N-Ethyl-5-methyl-7-(2,4,6trimethylphenyl)-5H-pyrrolo[3,2-d]pyrimidin-4-amine], the IC50 is 500 nM.

System in a further data set: not given
Assay: not given
Settings: not given
The term melting point denotes the temperature, or range, at which the solid turns liquid. As for `CCCN(CC1CC1)c1ncnc2c(-c3c(C)cc(C)cc3C)cn(C)c12` (as salt: HCl) [Compound 1, N-cyclopropylmethyl-N-propyl-5-methyl-7-(2,4,6-trimethylphenyl)-5H-pyrrolo[3,2-d]pyrimidin-4-amine], the melting point was in the range of 205 to 207 °C. Still for that read-out and setting: for `CCCCN(CC)c1ncnc2c(-c3c(C)cc(C)cc3C)cn(C)c12` [Compound 5, N-Butyl-N-Ethyl-5-methyl-7-(2,4,6trimethylphenyl)-5H-pyrrolo[3,2-d]pyrimidin-4-amine] the value was 126 to 128 °C; for `Cc1cc(C)c(-c2cn(C)c3c(N4CCCCCC4)ncnc23)c(C)c1` [Compound 7, 4-(1-Homopiperidinyl)-5-methyl-7-(2,4,6-trimethylphenyl)-5H-pyrrolo[3,2-d]pyrimidine], 140 to 142 °C. On the same count and under the same terms, then `CCCN(CCC)c1ncnc2c(-c3c(C)cc(C)cc3C)cn(C)c12` [Compound 2, N,N-Dipropyl-5-methyl-7-(2,4,6trimethylphenyl)-5H-pyrrolo[3,2-d]pyrimidin-4-amine], with 116 to 118 °C.

The record behind these values is patent US6495688B2, “Deazapurine derivatives: a new class of CRF1 specific ligands” (Neurogen Corporation, priority 1995, dated 2002).
